Where a name gives a salt, the structure may show the parent alone. Read-outs that look alike come from different tables or passages of the source.
Legend:
[1] = stability of polymorphic forms I, II, III by PXRD under ICH conditions; format: physicochemical; settings: ICH conditions 40° C./75% R.H., 1 month, hydrobromide
Protocol: It is well known that organic molecules can crystallize into solid forms. Moreover the same organic compound may assume different crystalline arrangements in solid form, depending on the conditions under which the crystal product is formed. This phenomenon is commonly known as polymorphism. A study was undertaken to explore the polymorphic forms of bupropion hydrobromide. The crystal forms of the products obtained in this study were determined by powder X-ray diffraction (PXRD). A RIGAKU miniflex instrument (Radiation Cu Koc, generator 30 KV, filter Ni) was used to obtain the PXRD data.
The three polymorphic forms were subjected to stability testing. Samples of the polymorphic forms were subjected to ICH conditions (40° C., 75% R.H.) and PXRD data was obtained at 3 months and 6 months. […] Samples of the polymorphic forms II and III were tested after 1 month under the same accelerated stability conditions.
Samples of bupropion HBr form I were subjected to the conditions for the accelerated stability study as described in Example 10 and the shelf life stability study as described in Example 11.
10 g of bupropion HBr form I were dissolved in a mixture of 170 ml of acetone and 7 ml of water. The mixture was brought to reflux with dissolution of the solid. The solution was then cooled to room temperature. After one night the precipitate formed was filtered and dried at 40° C. under vacuum (30 mmHg) for 12 hours. 2.4 g of bupropion HBr form II were obtained. […] The crystalline form was checked after maintaining the product under these conditions for 1 month.
The mixture was brought to reflux obtaining complete dissolution of the solid. The solution was then cooled to room temperature without stirring and left in these conditions for 18 hours. The resulting crystalline solid was then filtered and dried under vacuum (30 mmHg) at 50° C. for 4 hours. 11.2 g of bupropion HBr form III were obtained. A sample of the product was prepared for stability testing by sealing the product in polyethylene bags, which in turn were placed in aluminium bags containing silica and sealed, and placed in the stability chamber in ICH conditions (40° C./75% R.H.). The crystalline form was checked after maintaining the product in these conditions for 1 month.

[2] = forced degradation stability study of bupropion salts in vials, 40 degrees C./75% RH, HPLC assay and impurities
[3] = moisture content by KF and pH (aq. 0.5%) of bupropion salts; format: physicochemical
Protocol: The eight salts were first evaluated by HPLC, KF, pH and DSC for purity, water content, aqueous pH and possible polymorphs.
(§1) The salts were analyzed by DSC (at 10° C./min from 30° C. up to 400° C.) and the pH (aq. 0.5%), and the moisture content by KF were also measured. The TGA was performed on the HCl, maleate, tosylate and HBr salts.

[4] = TGA of bupropion salts; format: physicochemical; settings: for residue (TGA): at 400° C.; for weight lost (TGA): from room temperature to 100° C.
Protocol: 2-5 mg of each salt was placed in an aluminium pan and covered with its lid. DSC was run for each sample at the rate of 10 degrees C./min (for HBr salt, different rates were used to investigate for polymorphs) from 30 degrees C. to 400 degrees C. TGA was also used for each of the HBr, HCl, maleate and tosylate salts.
as §1

[5] = cited from earlier work
[6] = after re-crystallization in acetonitrile/hexane or acetonitrile/EtOAc
[7] = Mono- and Diglyceride Surfactants (Table 89)
[8] = Polyethylene Glycol Alkyl Ethers (Table 92)
[9] = Sterol and Sterol Derivative Surfactants (Table 90)
[10] = Sorbitan Fatty Acid Ester Surfactants (Table 96)
[11] = Sugar Ester Surfactants (Table 93)

## CC(NC(C)(C)C)C(=O)c1cccc(Cl)c1 (centres unmarked) [bupropion HBr form II, bupropion hydrobromide]
[1]
  PXRD profile after storage (polymorph stability): still in form II
[1]; listed as Polymorphic form II
  PXRD profile after storage (polymorph stability): no change in the PXRD profile

## CC(NC(C)(C)C)C(=O)c1cccc(Cl)c1 (centres unmarked) [bupropion HBr form III, bupropion hydrobromide]
[1]
  PXRD profile after storage (polymorph stability): not stable in this form under these conditions
[1]; listed as form III
  PXRD profile after storage (polymorph stability): conversion to form II

## Bupropion Fumarate
[2]
  In IPA/EtOH, 3-CBZ: order of impurity content: maleate > HBr > HCl > Fumarate
  In IPA/EtOH, 852U77: order of impurity content: fumarate > HBr ≈HCl ≈maleate ≈tosylate
  In IPA/EtOH, Total imp.: order of impurity content: fumarate > maleate > HBr > HCl > tosylate
  In water, 3-CBZ: order of impurity content: HCl > HBr≈maleate≈fumarate
  In water, 852U77: order of impurity content: fumarate > HBr > maleate > HCl
  In water, Total imp.: order of impurity content: fumarate > HBr > HCl > tosylate > maleate
[3]; salt as received
  moisture content KF: 0.09%
  pH of the aqueous solution of 0.5%: 3.84

## Bupropion maleate
[4]
  thermally stable to at least (TGA): at least 150 °C
  residue (TGA): minimal residues
  weight lost (TGA): 1.3%
[2]
  In IPA/EtOH, 3-CBZ: order of impurity content: maleate > HBr > HCl > Fumarate
  In IPA/EtOH, 852U77: order of impurity content: fumarate > HBr ≈HCl ≈maleate ≈tosylate
  In IPA/EtOH, Total imp.: order of impurity content: fumarate > maleate > HBr > HCl > tosylate
  In water, 3-CBZ: order of impurity content: HCl > HBr≈maleate≈fumarate
  In water, 852U77: order of impurity content: fumarate > HBr > maleate > HCl
  In water, Total imp.: order of impurity content: fumarate > HBr > HCl > tosylate > maleate
[3]; salt as received
  moisture content KF: 0.10%
  pH of the aqueous solution of 0.5%: 4.29

## Bupropion tosylate
[4]
  residue (TGA): 10.3%
  weight lost (TGA): 1.3%
[2]
  In IPA/EtOH, 852U77: order of impurity content: fumarate > HBr ≈HCl ≈maleate ≈tosylate
  In IPA/EtOH, Total imp.: order of impurity content: fumarate > maleate > HBr > HCl > tosylate
  In water, Total imp.: order of impurity content: fumarate > HBr > HCl > tosylate > maleate
[3]; [6]
  moisture content KF: 0.23%
  pH: 5.88
[3]; re-crystallized sample retested after two months
  moisture content KF: 0.18%
[3]; salt as received
  moisture content KF: 1.71%
  pH of the aqueous solution of 0.5%: 5.56

## Caprylic/capric glycerides
[5]; [7]
  HLB: <10

## Distearin
[5]; [7]
  HLB: <10

## Glycerol monooleate/linoleate
[5]; [7]
  HLB: 3-4

## Glyceryl dioleate
[5]; [7]
  HLB: 3-4

## Glyceryl mono-, dioleate
[5]; [7]
  HLB: <10

## Glyceryl palmitic/stearic
[5]; [7]
  HLB: <10

## Mono-and diacetylated monoglycerides
[5]; [7]
  HLB: 3.8-4

## PEG-3 oleyl ether
[5]; [8]
  HLB: <10

## PEG-4 lauryl ether
[5]; [8]
  HLB: 9.7

## PEG-5 oleyl ether
[5]; [8]
  HLB: <10

## PEG-5 soya sterol
[5]; [9]
  HLB: <10

## PEG-10 soya sterol
[5]; [9]
  HLB: <10

## PEG-20 soya sterol
[5]; [9]
  HLB: <10

## PEG-24 cholesterol ether
[5]; [9]
  HLB: >10

## PEG-25 phyto sterol
[5]; [9]
  HLB: >10

## PEG-30 cholestanol
[5]; [9]
  HLB: >10

## PEG-30 soya sterol
[5]; [9]
  HLB: >10

## Phytosterol
[5]; [9]
  HLB: <10

## Sorbitan monoisostearate
[5]; [10]
  HLB: 4.7

## Sorbitan monooleate
[5]; [10]
  HLB: 4.3

## Sorbitan monostearate
[5]; [10]
  HLB: 4.7

## Sorbitan sesquistearate
[5]; [10]
  HLB: 4.2

## Sorbitan trioleate
[5]; [10]
  HLB: 4.3

## Sucrose dipalmitate
[5]; [11]
  HLB: 7.4

## Sucrose distearate
[5]; [11]
  HLB: 3

## Sucrose monopalmitate
[5]; [11]
  HLB: >10

From patent publication US7645802B2 (Biovail Laboratories International SRL., priority 2005, dated 2010)
